Test results published in patent publication US8871753B2, “Macrocyclic compounds and their use as kinase inhibitors” (Incyte Corporation, priority 2008, dated 2014).
pIC50: −log10 of the molar value. Counter-ions that a name gives are not always drawn. Each block holds one molecule with its values, some of them ahead of it.

Tests used:
Format in all cases: biochemical
TYK2 = TYK2 (Homo sapiens, UniProt P29597); experiment: TYK2 kinase inhibition (Table A1)
[1] = target: T1, human JAK3 (a.a. 781-1124) (Homo sapiens, UniProt P52333); experiment: In vitro JAK kinase assay (HTRF, phosphorylation of a biotinylated peptide), JAK3; details: method AA1 (3 μM ATP) or AA2 (1000 μM ATP), not stated per value
T1 construct: JAK3 (a.a. 781-1124); His tag (N); made in house; host or cells: insect cells (baculovirus)
T1 sequence (P52333 781-1124): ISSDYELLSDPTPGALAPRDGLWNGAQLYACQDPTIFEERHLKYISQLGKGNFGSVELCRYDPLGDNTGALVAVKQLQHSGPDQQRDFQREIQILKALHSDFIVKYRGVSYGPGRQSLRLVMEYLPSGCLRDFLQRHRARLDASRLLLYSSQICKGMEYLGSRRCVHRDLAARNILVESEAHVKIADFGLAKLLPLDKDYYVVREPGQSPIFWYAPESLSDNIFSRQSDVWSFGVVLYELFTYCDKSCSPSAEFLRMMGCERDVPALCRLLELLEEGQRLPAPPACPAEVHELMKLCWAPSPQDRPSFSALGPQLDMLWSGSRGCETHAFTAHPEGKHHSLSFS
Outline: (§1)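 Phosphorylation of a biotinylated peptide by the JAK kinase domain, detected by HTRF with Eu-Py20 and SA-APC. ATP was 90 μM for JAK1, 30 μM for JAK2 and 3 μM for JAK3. Reactions ran 1 h at room temperature and were stopped with EDTA, followed by 40 min antibody binding.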

[2] = target: T2, human JAK1 (a.a. 837-1142) (Homo sapiens, UniProt P23458); experiment: In vitro JAK kinase assay (HTRF, phosphorylation of a biotinylated peptide), JAK1; details: method AA1 (90 μM ATP) or AA2 (1000 μM ATP), not stated per value; read-out: JAK1 IC50
T2 construct: human JAK1 (a.a. 837-1142); His tag (N); made in house; host or cells: insect cells (baculovirus)
T2 sequence (P23458 849-1154): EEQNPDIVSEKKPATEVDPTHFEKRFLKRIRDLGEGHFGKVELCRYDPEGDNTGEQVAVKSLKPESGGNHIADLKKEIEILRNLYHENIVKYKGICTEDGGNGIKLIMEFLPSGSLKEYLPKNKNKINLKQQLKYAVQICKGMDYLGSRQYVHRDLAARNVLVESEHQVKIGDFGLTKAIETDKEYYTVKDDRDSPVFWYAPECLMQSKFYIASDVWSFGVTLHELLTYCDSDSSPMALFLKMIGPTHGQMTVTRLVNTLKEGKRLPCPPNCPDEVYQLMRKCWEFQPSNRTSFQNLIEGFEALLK
Outline: as §1

[3] = target: T3, human JAK2 (a.a. 828-1132) (Homo sapiens, UniProt O60674); experiment: In vitro JAK kinase assay (HTRF, phosphorylation of a biotinylated peptide), JAK2; details: method AA1 (30 μM ATP) or AA2 (1000 μM ATP), not stated per value
T3 construct: JAK2 (a.a. 828-1132); His tag (N); made in house; host or cells: insect cells (baculovirus)
T3 sequence (O60674 828-1132): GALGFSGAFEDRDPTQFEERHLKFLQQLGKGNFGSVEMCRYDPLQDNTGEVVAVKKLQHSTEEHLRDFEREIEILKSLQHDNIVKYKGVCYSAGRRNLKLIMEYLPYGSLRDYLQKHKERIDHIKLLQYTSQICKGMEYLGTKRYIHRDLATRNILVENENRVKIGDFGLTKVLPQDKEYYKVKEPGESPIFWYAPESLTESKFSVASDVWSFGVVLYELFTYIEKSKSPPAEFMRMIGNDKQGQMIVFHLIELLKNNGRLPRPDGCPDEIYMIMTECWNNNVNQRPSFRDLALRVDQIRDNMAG
Outline: as §1

[4] = target: T4, Recombinant Human Anaplastic Lymphoma Kinase (Homo sapiens, UniProt Q9UM73); experiment: ALK HTRF kinase assay; details: 90 μM ATP; for ALK % of inhibition at a concentration of 500 nM or 1 mM: compound at 500 nM or 1 mM
T4 construct: purchased Invitrogen, Carlsbad, Calif
T4 sequence (Q9UM73 19-1620): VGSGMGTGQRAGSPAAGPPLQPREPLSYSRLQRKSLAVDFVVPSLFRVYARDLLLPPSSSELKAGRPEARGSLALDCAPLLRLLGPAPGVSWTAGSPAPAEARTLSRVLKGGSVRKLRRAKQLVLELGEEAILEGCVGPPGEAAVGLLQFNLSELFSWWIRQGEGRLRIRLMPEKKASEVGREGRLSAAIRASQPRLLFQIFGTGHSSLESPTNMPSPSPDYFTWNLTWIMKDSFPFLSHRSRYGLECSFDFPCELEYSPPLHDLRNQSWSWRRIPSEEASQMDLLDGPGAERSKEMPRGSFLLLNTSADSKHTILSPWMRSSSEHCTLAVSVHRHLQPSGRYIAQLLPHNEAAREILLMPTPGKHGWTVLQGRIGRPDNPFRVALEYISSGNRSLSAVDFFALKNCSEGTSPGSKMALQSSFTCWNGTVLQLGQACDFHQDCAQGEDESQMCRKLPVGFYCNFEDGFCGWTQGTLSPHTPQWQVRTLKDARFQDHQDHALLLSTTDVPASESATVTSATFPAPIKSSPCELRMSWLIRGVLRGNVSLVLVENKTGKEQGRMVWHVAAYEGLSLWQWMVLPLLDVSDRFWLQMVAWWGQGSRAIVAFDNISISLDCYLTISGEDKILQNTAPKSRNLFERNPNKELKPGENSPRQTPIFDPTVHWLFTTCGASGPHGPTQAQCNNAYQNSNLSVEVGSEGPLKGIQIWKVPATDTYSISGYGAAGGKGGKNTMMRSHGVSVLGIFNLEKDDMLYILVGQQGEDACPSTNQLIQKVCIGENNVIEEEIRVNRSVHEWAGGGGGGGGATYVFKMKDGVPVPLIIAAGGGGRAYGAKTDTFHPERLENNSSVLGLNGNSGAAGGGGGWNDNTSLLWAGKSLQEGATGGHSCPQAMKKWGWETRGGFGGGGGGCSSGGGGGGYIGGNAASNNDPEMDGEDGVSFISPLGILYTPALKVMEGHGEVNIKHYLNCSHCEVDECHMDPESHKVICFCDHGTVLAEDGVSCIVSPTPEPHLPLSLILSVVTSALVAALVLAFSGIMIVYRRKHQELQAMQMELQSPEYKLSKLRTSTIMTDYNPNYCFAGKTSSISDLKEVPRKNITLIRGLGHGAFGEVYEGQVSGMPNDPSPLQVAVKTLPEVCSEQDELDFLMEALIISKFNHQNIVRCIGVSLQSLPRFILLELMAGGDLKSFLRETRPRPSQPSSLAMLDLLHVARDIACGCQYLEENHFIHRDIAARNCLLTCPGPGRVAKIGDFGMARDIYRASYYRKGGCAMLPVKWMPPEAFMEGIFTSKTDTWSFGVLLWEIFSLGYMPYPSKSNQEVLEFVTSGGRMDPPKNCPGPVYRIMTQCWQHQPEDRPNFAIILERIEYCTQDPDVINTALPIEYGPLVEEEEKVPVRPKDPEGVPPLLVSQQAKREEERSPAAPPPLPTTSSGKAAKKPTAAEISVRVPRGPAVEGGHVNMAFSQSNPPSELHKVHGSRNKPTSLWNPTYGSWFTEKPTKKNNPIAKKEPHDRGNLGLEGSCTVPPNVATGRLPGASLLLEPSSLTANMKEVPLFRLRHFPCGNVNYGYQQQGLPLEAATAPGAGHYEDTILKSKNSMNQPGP
Outline: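 Biotinylated peptide substrate, recombinant human ALK; detection via europium-chelate antibody to phosphotyrosine paired with streptavidin-APC. Potency expressed as IC50 from four-parameter curve fitting.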

Sequence of TYK2 (P29597 whole entry): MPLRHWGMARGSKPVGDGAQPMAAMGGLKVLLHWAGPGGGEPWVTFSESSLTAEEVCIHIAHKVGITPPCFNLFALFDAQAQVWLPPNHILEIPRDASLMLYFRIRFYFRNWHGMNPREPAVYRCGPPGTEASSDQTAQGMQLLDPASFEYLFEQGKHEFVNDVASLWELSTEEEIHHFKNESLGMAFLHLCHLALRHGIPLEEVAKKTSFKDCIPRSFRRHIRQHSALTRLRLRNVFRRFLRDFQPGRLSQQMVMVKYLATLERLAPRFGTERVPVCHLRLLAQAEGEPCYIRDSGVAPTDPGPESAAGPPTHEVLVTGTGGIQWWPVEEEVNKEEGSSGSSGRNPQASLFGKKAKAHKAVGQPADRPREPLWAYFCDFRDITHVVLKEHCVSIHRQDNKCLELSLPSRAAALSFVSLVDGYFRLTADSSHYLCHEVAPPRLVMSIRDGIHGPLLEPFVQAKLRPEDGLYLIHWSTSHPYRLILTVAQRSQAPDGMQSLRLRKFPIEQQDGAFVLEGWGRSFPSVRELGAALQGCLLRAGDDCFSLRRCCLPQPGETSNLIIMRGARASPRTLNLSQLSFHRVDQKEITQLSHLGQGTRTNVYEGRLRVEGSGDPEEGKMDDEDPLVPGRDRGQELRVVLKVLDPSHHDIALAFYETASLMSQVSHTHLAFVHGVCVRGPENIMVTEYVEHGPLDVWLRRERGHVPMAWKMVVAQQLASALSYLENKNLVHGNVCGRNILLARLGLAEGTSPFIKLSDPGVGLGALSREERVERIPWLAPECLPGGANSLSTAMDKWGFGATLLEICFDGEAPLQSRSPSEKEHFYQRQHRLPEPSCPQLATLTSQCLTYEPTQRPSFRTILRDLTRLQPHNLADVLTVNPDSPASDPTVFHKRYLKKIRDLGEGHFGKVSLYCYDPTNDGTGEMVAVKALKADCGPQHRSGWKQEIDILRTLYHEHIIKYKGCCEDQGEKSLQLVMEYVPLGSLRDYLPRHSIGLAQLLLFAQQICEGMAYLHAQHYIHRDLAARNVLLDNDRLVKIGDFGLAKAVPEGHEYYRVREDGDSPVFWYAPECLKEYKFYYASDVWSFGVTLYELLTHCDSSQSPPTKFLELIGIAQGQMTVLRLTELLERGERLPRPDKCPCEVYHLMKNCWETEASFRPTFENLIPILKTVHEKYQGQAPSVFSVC

Compound: Oc1ccc2cc1Nc1nc(ncc1Cl)Nc1cccc(c1)CC2 [Example A26, 6-Chloro-2,4,8,22-tetraazatetracyclo[14.3.1.1(3,7).1(9,13)]docosa-1(20),3(22),4,6,9(21),10,12,16,18-nonaen-10-ol trifluoroacetate]
pIC50 (TYK2): 7.35 | pIC50 [1]: 8.04 | pIC50 [2]: 7.44 | pIC50 [3]: 7.96 | pIC50 [4]: 6.46

Compound: CC(C)(C)OC(=O)N1CCC(C(=O)Nc2ccc3cc2CCc2cccc(c2)Nc2ncc(Cl)c(n2)N3)CC1 [Example A27, tert-Butyl 4-({[6-chloro-2,4,8,22-tetraazatetracyclo[14.3.1.1(3,7).1(9,13)]docosa-1(20),3(22),4,6,9(21),10,12,16,18-nonaen-12-yl]amino}carbonyl)piperidine-1-carboxylate trifluoroacetate]
pIC50 (TYK2): 7.37 | pIC50 [1]: 6.91 | pIC50 [2]: 7.21 | pIC50 [3]: 7.25 | ALK % of inhibition at a concentration of 500 nM or 1 mM [4]: 21%

Compound: O=C(Nc1ccc2cc1CCc1cccc(c1)Nc1ncc(Cl)c(n1)N2)C1CCNCC1 [Example A28, N-[6-Chloro-2,4,8,22-tetraazatetracyclo[14.3.1.1(3,7).1(9,13)]docosa-1(20), 3(22),4,6,9(21),10,12,16,18-nonaen-12-yl]piperidine-4-carboxamide bis(trifluoroacetate)]
pIC50 (TYK2): 6.76 | pIC50 [1]: 7.00 | pIC50 [2]: 7.25 | pIC50 [3]: 7.21 | ALK % of inhibition at a concentration of 500 nM or 1 mM [4]: 30%

Compound: CC(=O)N1CCC(C(=O)Nc2ccc3cc2CCc2cccc(c2)Nc2ncc(Cl)c(n2)N3)CC1 [Example A29, 1-Acetyl-N-[6-chloro-2,4,8,22-tetraazatetracyclo[14.3.1.1(3,7).1(9,13)]docosa-1(20),3(22),4,6,9(21),10,12,16,18-nonaen-12-yl]piperidine-4-carboxamide trifluoroacetate]
pIC50 (TYK2): 7.19 | pIC50 [1]: 7.51 | pIC50 [2]: 7.38 | pIC50 [3]: 7.51 | ALK % of inhibition at a concentration of 500 nM or 1 mM [4]: 30%

Other lines, results leading:

pIC50 (TYK2): 7.01 | pIC50 [1]: 7.59 | pIC50 [2]: 7.24 | pIC50 [3]: 8.21 | ALK % of inhibition at a concentration of 500 nM or 1 mM [4]: 65%
Compound: COc1cc2cc(c1)Nc1nc(ncc1Cl)Nc1cccc(c1)CC2 [Example A21, 6-Chloro-11-methoxy-2,4,8,22-tetraazatetracyclo[14.3.1.1(3,7).1(9,13)]docosa-1(20),3(22),4,6,9(21),10,12,16,18-nonaene trifluoroacetate]

pIC50 (TYK2): 7.66 | pIC50 [1]: 8.00 | pIC50 [2]: 7.96 | pIC50 [3]: 8.21 | ALK % of inhibition at a concentration of 500 nM or 1 mM [4]: 54%
Compound: Oc1cc2cc(c1)Nc1nc(ncc1Cl)Nc1cccc(c1)CC2 [Example A22, 6-Chloro-2,4,8,22-tetraazatetracyclo[14.3.1.1(3,7).1(9,13)]docosa-1(20),3(22),4,6,9(21),10,12,16,18-nonaen-11-ol trifluoroacetate]

pIC50 (TYK2): 7.43 | pIC50 [1]: 7.66 | pIC50 [2]: 7.92 | pIC50 [3]: 9.00 | ALK % of inhibition at a concentration of 500 nM or 1 mM [4]: 33%
Compound: NC(=O)COc1cc2cc(c1)Nc1nc(ncc1Cl)Nc1cccc(c1)CC2 [Example A23, 2-{[6-Chloro-2,4,8,22-tetraazatetracyclo[14.3.1.1(3,7).1(9,13)]docosa-1(20),3(22),4,6,9(21),10,12,16,18-nonaen-11-yl]oxy}acetyl)acetamide trifluoroacetate]

pIC50 (TYK2): 6.86 | pIC50 [1]: 7.24 | pIC50 [2]: 7.33 | pIC50 [3]: 8.37 | ALK % of inhibition at a concentration of 500 nM or 1 mM [4]: 11%
Compound: O=C(COc1cc2cc(c1)Nc1nc(ncc1Cl)Nc1cccc(c1)CC2)Nc1ccccc1 [Example A24, 2-{[6-Chloro-2,4,8,22-tetraazatetracyclo[14.3.1.1(3,7).1(9,13)]docosa-1(20),3(22),4,6,9(21),10,12,16,18-nonaen-11-yl]oxy}-N-phenylacetamide trifluoroacetate]
